{"source": "patent US9315491B2", "about": "(DEVELOPMENT CENTER FOR BIOTECHNOLOGY, priority 2009, dated 2016)", "data": [{"target": "recombinant mTOR (Homo sapiens (Human), UniProt P42345)", "sequence (P42345 1360-2549)": "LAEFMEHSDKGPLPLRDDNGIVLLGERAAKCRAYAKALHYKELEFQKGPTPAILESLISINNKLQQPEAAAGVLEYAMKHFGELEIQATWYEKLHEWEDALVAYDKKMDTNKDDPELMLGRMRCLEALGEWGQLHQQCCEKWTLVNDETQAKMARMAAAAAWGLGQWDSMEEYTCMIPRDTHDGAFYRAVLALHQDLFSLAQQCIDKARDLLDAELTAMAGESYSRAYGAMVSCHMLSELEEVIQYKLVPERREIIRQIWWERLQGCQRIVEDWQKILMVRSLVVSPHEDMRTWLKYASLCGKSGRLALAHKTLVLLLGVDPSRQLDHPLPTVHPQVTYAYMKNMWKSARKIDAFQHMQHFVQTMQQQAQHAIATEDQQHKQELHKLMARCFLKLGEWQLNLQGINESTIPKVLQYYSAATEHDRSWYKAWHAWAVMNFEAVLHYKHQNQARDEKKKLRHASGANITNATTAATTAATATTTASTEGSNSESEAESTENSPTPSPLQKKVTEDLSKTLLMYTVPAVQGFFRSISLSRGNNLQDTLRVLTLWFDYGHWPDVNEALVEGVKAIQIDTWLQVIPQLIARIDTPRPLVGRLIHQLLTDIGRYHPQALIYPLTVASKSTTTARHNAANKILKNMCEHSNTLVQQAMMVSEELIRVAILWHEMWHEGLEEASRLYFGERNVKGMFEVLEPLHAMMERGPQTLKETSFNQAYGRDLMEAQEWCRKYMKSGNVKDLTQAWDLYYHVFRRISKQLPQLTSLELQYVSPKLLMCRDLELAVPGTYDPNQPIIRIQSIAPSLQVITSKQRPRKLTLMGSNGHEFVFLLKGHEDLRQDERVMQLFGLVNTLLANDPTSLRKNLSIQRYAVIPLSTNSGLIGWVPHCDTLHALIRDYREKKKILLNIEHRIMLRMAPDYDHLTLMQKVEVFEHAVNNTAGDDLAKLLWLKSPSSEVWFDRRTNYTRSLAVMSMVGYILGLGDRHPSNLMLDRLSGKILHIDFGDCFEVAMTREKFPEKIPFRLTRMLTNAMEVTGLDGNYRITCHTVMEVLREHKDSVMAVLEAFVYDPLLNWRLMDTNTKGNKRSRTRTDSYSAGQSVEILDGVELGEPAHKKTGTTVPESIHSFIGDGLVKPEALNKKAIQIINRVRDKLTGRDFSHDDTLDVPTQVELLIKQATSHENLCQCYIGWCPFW", "test": "mTOR kinase assay (33P incorporation into 4EBP1)", "type": "biochemical", "conditions": "compound at 10 μM, 10 μM ATP", "method": "The activity of the compound against mTOR was examined by measuring the incorporation of ^33P from [γ-^33P]-ATP into 4EBP1. His-tagged, recombinant human 4EBP1 was expressed in E. coli, purified by nickel-nitrilotriacetic acid (Ni-NTA) resins, and stored at −80° C. Phosphorylation of 4EBP1 by mTOR was assayed in the presence or absence of the compound and performed in a final volume of 25 μl reaction buffer containing 300 ng 4EBP1, 50 ng recombinant mTOR (Invitrogen), 50 mM HEPES (pH 7.5), 1 mM EGTA, 0.01% Polysorbate 20, 10 mM MnCl2, 2.5 mM DTT, 10 μM ATP, and 0.5 μCi [γ-33P]-ATP (PerkinElmir) for 30 min at 30° C. The reactions were terminated by adding 3% phosphoric acid. The ^33P labeled 4EBP1 was transferred onto UniFilter-96 GF/B plate (PerkinElmer) and quantified by Top Count Microplate Scintillation Counter (PerkinElmer). For primary screening of kinase activity inhibition, each test compound was evaluated at […] in duplicate. […] The IC50 values of the compounds were determined after carrying out assays at eight serially diluted concentrations of each compound in duplicate. The results were analyzed using linear regression software (GraphPad Prism 5; GraphPad Software Inc.).\nIC50 value is defined as the concentration of the test compound which achieves a half-maximal inhibition of the kinase activity.", "units": {"inhibition at 10 µM": "%"}, "values": [{"smiles": "CSc1c(Cl)nc(-c2ccc(NC(=O)Nc3cccc(F)c3)cc2)nc1N1CCOCC1", "note": "[MTR-0137, 1-[4-(4-Chloro-5-methylsulfanyl-6-morpholin-4-yl-pyrimidin-2-yl)-phenyl]-3-(3-fluoro-phenyl)-urea]", "inhibition at 10 µM": 84}, {"smiles": "CCOc1c(C(=O)NCCN2CCOCC2)nc(-c2ccc(NC(=O)Nc3ccccc3)cc2)nc1N1CCOCC1", "note": "[MTR-0139, 5-Ethoxy-6-morpholin-4-yl-2-[4-(3-phenyl-ureido)-phenyl]-pyrimidine-4-carboxylic acid (2-morpholin-4-yl-ethyl)-amide]", "inhibition at 10 µM": 85}, {"smiles": "CCOc1c(C(=O)N2CCCC2)nc(-c2ccc(NC(=O)Nc3ccccc3)cc2)nc1N1CCOCC1", "note": "[MTR-0141, 1-{4-[5-Ethoxy-4-morpholin-4-yl-6-(pyrrolidine-1-carbonyl)-pyrimidin-2-yl]-phenyl}-3-phenyl-urea]", "inhibition at 10 µM": 96}, {"smiles": "CCOC(=O)c1nc(-c2ccc(NC(=O)Nc3ccc(F)cc3)cc2)nc(N2CCOCC2)c1OCC", "note": "[MTR-0149, 5-Ethoxy-2-{4-[3-(4-fluoro-phenyl)-ureido]-phenyl}-6-morpholin-4-yl-pyrimidine-4-carboxylic acid ethyl ester]", "inhibition at 10 µM": 93}, {"smiles": "CCOC(=O)c1nc(-c2ccc(NC(=O)Nc3ccc(F)c(F)c3)cc2)nc(N2CCOCC2)c1OCC", "note": "[MTR-0150, 2-{4-[3-(3,4-Difluoro-phenyl)-ureido]-phenyl}-5-ethoxy-6-morpholin-4-yl-pyrimidine-4-carboxylic acid ethyl ester]", "inhibition at 10 µM": 87}, {"smiles": "CCNC(=O)Nc1ccc(-c2ncc(SC)c(N3CCOCC3)n2)cc1", "note": "[MTR-0159, 1-Ethyl-3-[4-(5-methylsulfanyl-4-morpholin-4-yl-pyrimidin-2-yl)-phenyl]-urea]", "inhibition at 10 µM": 97}, {"smiles": "CCOc1c(CN2CCN(C)CC2)nc(-c2ccc(NC(=O)Nc3ccccc3)cc2)nc1N1CCOCC1", "note": "[MTR-0172, 1-{4-[5-Ethoxy-4-(4-methyl-piperazin-1-ylmethyl)-6-morpholin-4-yl-pyrimidin-2-yl]-phenyl}-3-phenyl-urea]", "inhibition at 10 µM": 86}, {"smiles": "CSc1cnc(-c2ccc(NC(=O)Nc3ccc(F)c(F)c3)cc2)nc1N1CCOCC1", "note": "[MTR-0177, 1-(3,4-Difluoro-phenyl)-3-[4-(5-methylsulfanyl-4-morpholin-4-yl-pyrimidin-2-yl)-phenyl]-urea]", "inhibition at 10 µM": 84}, {"smiles": "COc1c(C(=O)O)nc(-c2ccc(NC(=O)Nc3ccccc3)cc2)nc1N1CCOCC1", "note": "[MTR-0183, 5-Methoxy-6-morpholin-4-yl-2-[4-(3-phenyl-ureido)-phenyl]-pyrimidine-4-carboxylic acid]", "inhibition at 10 µM": 95}, {"smiles": "CCOc1c(C(=O)N2CCN(C)CC2)nc(-c2ccc(NC(=O)Nc3ccccc3)cc2)nc1N1CCOCC1", "note": "[MTR-0186, 1-{4-[5-Ethoxy-4-(4-methyl-piperazine-1-carbonyl)-6-morpholin-4-yl-pyrimidin-2-yl]-phenyl}-3-phenyl-urea]", "inhibition at 10 µM": 96}, {"smiles": "CCOc1c(CN2CCCCC2)nc(-c2ccc(NC(=O)Nc3ccccc3)cc2)nc1N1CCOCC1", "note": "[MTR-0193, 1-[4-(5-Ethoxy-4-morpholin-4-yl-6-piperidin-1-ylmethyl-pyrimidin-2-yl)-phenyl]-3-phenyl-urea]", "inhibition at 10 µM": 81}, {"smiles": "CSc1c(Cl)nc(-c2ccc(NC(=O)NCCN3CCOCC3)cc2)nc1N1CCOCC1", "note": "[MTR-0198, 1-[4-(4-Chloro-5-methylsulfanyl-6-morpholin-4-yl-pyrimidin-2-yl)-phenyl]-3-(2-morpholin-4-yl-ethyl)-urea]", "inhibition at 10 µM": 87}, {"smiles": "CSc1c(Cl)nc(-c2ccc(NC(=O)Nc3nccs3)cc2)nc1N1CCOCC1", "note": "[MTR-0200, 1-[4-(4-Chloro-5-methylsulfanyl-6-morpholin-4-yl-pyrimidin-2-yl)-phenyl]-3-thiazol-2-yl-urea]", "inhibition at 10 µM": 84}, {"smiles": "CNC(=O)Nc1ccc(-c2ncc(SC)c(N3CCOCC3)n2)cc1", "note": "[MTR-0210, 1-Methyl-3-[4-(5-methylsulfanyl-4-morpholin-4-yl-pyrimidin-2-yl)-phenyl]-urea]", "inhibition at 10 µM": 96}, {"smiles": "CCOC(=O)c1ccc(NC(=O)Nc2ccc(-c3nc(Cl)c(SC)c(N4CCOCC4)n3)cc2)cc1", "note": "[MTR-0212, 4-{3-[4-(4-Chloro-5-methylsulfanyl-6-morpholin-4-yl-pyrimidin-2-yl)-phenyl]-ureido}-benzoic acid ethyl ester]", "inhibition at 10 µM": 85}, {"smiles": "CSc1c(Cl)nc(-c2ccc(NC(=O)Nc3ccc(N4CCOCC4=O)cc3)cc2)nc1N1CCOCC1", "note": "[MTR-0213, 1-[4-(4-Chloro-5-methylsulfanyl-6-morpholin-4-yl-pyrimidin-2-yl)-phenyl]-3-[4-(3-oxo-morpholin-4-yl)-phenyl]-urea]", "inhibition at 10 µM": 84}, {"smiles": "CSc1c(Cl)nc(-c2ccc(NC(=O)Nc3ccc(N4CCOCC4)nc3)cc2)nc1N1CCOCC1", "note": "[MTR-0237, 1-[4-(4-Chloro-5-methylsulfanyl-6-morpholin-4-yl-pyrimidin-2-yl)-phenyl]-3-(6-morpholin-4-yl-pyridin-3-yl)-urea]", "inhibition at 10 µM": 85}, {"smiles": "COc1ccc(NC(=O)Nc2ccc(-c3ncc(OC)c(N4CCOCC4)n3)cc2)cc1OC", "note": "[MTR-0239, 1-(3,4-Dimethoxy-phenyl)-3-[4-(5-methoxy-4-morpholin-4-yl-pyrimidin-2-yl)-phenyl]-urea]", "inhibition at 10 µM": 89}, {"smiles": "CCOC(=O)c1nc(-c2ccc(Nc3nc4ccccc4[nH]3)cc2)nc(N2CCOCC2)c1OCC", "note": "[MTR-0243, 2-[4-(1H-Benzoimidazol-2-ylamino)-phenyl]-5-ethoxy-6-morpholin-4-yl-pyrimidine-4-carboxylic acid ethyl ester]", "inhibition at 10 µM": 92}, {"smiles": "CCOc1c(C(=O)O)nc(-c2ccc(NC(=O)Nc3cccnc3)cc2)nc1N1CCOCC1", "note": "[MTR-0245, 5-Ethoxy-6-morpholin-4-yl-2-[4-(3-pyridin-3-yl-ureido)-phenyl]-pyrimidine-4-carboxylic acid]", "inhibition at 10 µM": 94}, {"smiles": "CCOC(=O)c1nc(-c2ccc(NC(=O)Nc3cccc(NC(=O)C(F)(F)F)c3)cc2)nc(N2CCOCC2)c1OCC", "note": "[MTR-0252, 5-Ethoxy-6-morpholin-4-yl-2-(4-{3-[3-(2,2,2-trifluoro-acetylamino)-phenyl]-ureido}-phenyl)-pyrimidine-4-carboxylic acid ethyl ester]", "inhibition at 10 µM": 82}, {"smiles": "CSc1c(Cl)nc(-c2ccc(NC(=O)Nc3ccc4c(c3)OCO4)cc2)nc1N1CCOCC1", "note": "[MTR-0256, 1-Benzo[1,3]dioxol-5-yl-3-[4-(4-chloro-5-methylsulfanyl-6-morpholin-4-yl-pyrimidin-2-yl)-phenyl]-urea]", "inhibition at 10 µM": 90}, {"smiles": "CCOC(=O)c1ccc(NC(=O)Nc2ccc(-c3ncc(SC)c(N4CCOCC4)n3)cc2)cc1", "note": "[MTR-0264, 4-{3-[4-(5-Methylsulfanyl-4-morpholin-4-yl-pyrimidin-2-yl)-phenyl]-ureido}-benzoic acid ethyl ester]", "inhibition at 10 µM": 86}, {"smiles": "CCOC(=O)c1nc(-c2ccc(NC(=O)Nc3ccc(N4CCN(C)CC4)nc3)cc2)nc(N2CCOCC2)c1OCC", "note": "[MTR-0275, 5-Ethoxy-2-(4-{3-[6-(4-methyl-piperazin-1-yl)-pyridin-3-yl]-ureido}-phenyl)-6-morpholin-4-yl-pyrimidine-4-carboxylic acid ethyl ester]", "inhibition at 10 µM": 97}, {"smiles": "CCOC(=O)c1nc(-c2ccc(NC(=O)Nc3ccc(N4CCOCC4)nc3)cc2)nc(N2CCOCC2)c1OCC", "note": "[MTR-0276, 5-Ethoxy-6-morpholin-4-yl-2-{4-[3-(6-morpholin-4-yl-pyridin-3-yl)-ureido]-phenyl}-pyrimidine-4-carboxylic acid ethyl ester]", "inhibition at 10 µM": 82}, {"smiles": "CSc1cnc(-c2ccc(NC(N)=O)cc2)nc1N1CCOCC1", "note": "[MTR-0286, [4-(5-Methylsulfanyl-4-morpholin-4-yl-pyrimidin-2-yl)-phenyl]-urea]", "inhibition at 10 µM": 93}, {"smiles": "CSc1cnc(-c2ccc(Nc3nc4ccccc4[nH]3)cc2)nc1N1CCOCC1", "note": "[MTR-0289, (1H-Benzoimidazol-2-yl)-[4-(5-methylsulfanyl-4-morpholin-4-yl-pyrimidin-2-yl)-phenyl]-amine]", "inhibition at 10 µM": 91}, {"smiles": "CSc1c(Cl)nc(-c2ccc(NC(=O)Nc3ccc(Br)nc3)cc2)nc1N1CCOCC1", "note": "[MTR-0291, 1-(6-Bromo-pyridin-3-yl)-3-[4-(4-chloro-5-methylsulfanyl-6-morpholin-4-yl-pyrimidin-2-yl)-phenyl]-urea]", "inhibition at 10 µM": 89}, {"smiles": "CSc1c(Cl)nc(-c2ccc(NC(=S)Nc3ccc(C(=O)O)cc3)cc2)nc1N1CCOCC1", "note": "[MTR-0293, 4-{3-[4-(4-Chloro-5-methylsulfanyl-6-morpholin-4-yl-pyrimidin-2-yl)-phenyl]-thioureido}-benzoic acid]", "inhibition at 10 µM": 83}, {"smiles": "CCOC(=O)c1nc(-c2ccc(NC(=O)Nc3cccc4[nH]ncc34)cc2)nc(N2CCOCC2)c1OCC", "note": "[MTR-0297, 5-Ethoxy-2-{4-[3-(1H-indazol-4-yl)-ureido]-phenyl}-6-morpholin-4-yl-pyrimidine-4-carboxylic acid ethyl ester]", "inhibition at 10 µM": 83}, {"smiles": "CSc1c(Cl)nc(-c2ccc(NC(=S)Nc3ccc(N4CCOCC4=O)cc3)cc2)nc1N1CCOCC1", "note": "[MTR-0304, 1-[4-(4-Chloro-5-methylsulfanyl-6-morpholin-4-yl-pyrimidin-2-yl)-phenyl]-3-[4-(3-oxo-morpholin-4-yl)-phenyl]-thiourea]", "inhibition at 10 µM": 90}, {"smiles": "CSc1c(Cl)nc(-c2ccc(Nc3nc4ccccc4[nH]3)cc2)nc1N1CCOCC1", "note": "[MTR-0305, (1H-Benzoimidazol-2-yl)-[4-(4-chloro-5-methylsulfanyl-6-morpholin-4-yl-pyrimidin-2-yl)-phenyl]-amine]", "inhibition at 10 µM": 82}]}]}
